The record followed here is US8119805B2, “Substituted disulfonamide compounds” (Gruenenthal GmbH, priority 2008, dated 2012).

Assay [1] concerns the target T1, B1R receptor of the rat (rB1R) (Rattus norvegicus, UniProt P97583).
T1 construct: expressed in transfected cells; host or cells: CHO K1 cells
T1 sequence (P97583 1-337): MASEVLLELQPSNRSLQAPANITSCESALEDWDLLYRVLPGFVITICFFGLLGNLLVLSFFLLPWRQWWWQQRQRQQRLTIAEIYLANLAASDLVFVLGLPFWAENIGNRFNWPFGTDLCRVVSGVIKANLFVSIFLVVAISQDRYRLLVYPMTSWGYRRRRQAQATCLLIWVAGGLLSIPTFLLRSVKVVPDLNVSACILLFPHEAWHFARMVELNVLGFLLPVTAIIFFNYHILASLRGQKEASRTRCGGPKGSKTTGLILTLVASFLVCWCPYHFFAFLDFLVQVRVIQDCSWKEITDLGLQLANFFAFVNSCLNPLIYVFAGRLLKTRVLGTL
Put plainly: Functional investigation on the bradykinin 1 receptor (B1R), FLIPR Ca2+ assay, rB1R cells. The format is cell-based. The note with it: test substance 10 μM; CHO K1 cells transfected with rat B1R gene; Fluo-4 Ca2+ signal; agonist Des-Arg9-bradykinin at EC80; % of maximum achievable inhibition; read-out: B1R antagonism, rat [10 μM] % inhibition. The essentials: (§1)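 CHO K1 cells stably expressing human or rat B1R, Fluo-4 loaded, read by FLIPR (λex 488, λem 540 nm). Test compound (10 μM) first gave % activation against Lys-Des-[MUT]-bradykinin ≥50 nM (hB1R) or Des-[MUT]-bradykinin 10 μM (rB1R). After 10–20 min, agonist at EC80 was added; % inhibition or IC50 from concentration series, n=2–3, N≥2.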

Assay [2] addresses T2, human B1R receptor (hB1R) (Homo sapiens, UniProt P46663).
T2 construct: expressed in transfected cells; host or cells: CHO K1 cells
T2 sequence (P46663 1-353): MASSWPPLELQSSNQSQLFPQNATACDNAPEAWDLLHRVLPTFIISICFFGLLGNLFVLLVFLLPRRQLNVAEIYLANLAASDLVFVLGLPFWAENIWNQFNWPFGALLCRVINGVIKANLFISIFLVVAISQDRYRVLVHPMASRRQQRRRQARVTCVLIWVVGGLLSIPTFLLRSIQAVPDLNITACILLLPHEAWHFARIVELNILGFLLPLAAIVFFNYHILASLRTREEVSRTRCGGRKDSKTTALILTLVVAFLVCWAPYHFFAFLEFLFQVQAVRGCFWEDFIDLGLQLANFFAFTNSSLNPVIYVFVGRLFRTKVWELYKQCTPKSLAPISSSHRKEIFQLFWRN
The assay can be described thus: Functional investigation on the bradykinin 1 receptor (B1R), FLIPR Ca2+ assay, hB1R cells. The format is cell-based. As to conditions: test substance 10 μM; CHO K1 cells transfected with human B1R gene; Fluo-4 Ca2+ signal; agonist Lys-Des-Arg9-bradykinin at EC80; % of maximum achievable inhibition; read-out: B1R antagonism, human [10 μM] % inhibition. The essentials: as §1

A word on the inhibition: it is the change of the read-out against control, counted positive when it falls.

As to `COc1cc(C)c(S(=O)(=O)N2CCCCC2CCCS(=O)(=O)N2CCC3(CC2)CCC(OCCN2CCCC2)(c2cccnc2)CC3)c(C)c1` (centres unmarked) [Example 87, 3-(3-(1-(4-Methoxy-2,6-dimethylphenylsulfonyl)piperidin-2-yl)propylsulfonyl)-9-(pyridin-3-yl)-9-(2-(pyrrolidin-1-yl)ethoxy)-3-azaspiro[5.5]undecane], the figures for the inhibition at 10 µM in assay [1] and in assay [2] were 102% and 100%, respectively.
